Laboratory results: patent US10131669B2, “Pyrazolopyrimidine compounds” (Pfizer Inc., priority 2014, dated 2018)
Counter-ions that a name gives are not always drawn.

Assays:
Type in all cases: biochemical
Human PDE4A3 = target: T1, Human PDE4A3 (Homo sapiens, UniProt P27815); assay: PDE4A3 Scintillation Proximity Assay (SPA), inhibition of enzyme activity; settings: geometric mean of 2-7 determinations unless otherwise indicated (b: ≥8 determinations; c: single determination), 1 μM cAMP, 30 min at 25° C., read-out: Human PDE4A FL
T1 construct: His6 (N); FLAG (C); made in house; host or cells: insect cells (baculovirus, pFastBac)
In short: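 Human PDE4A3 (aa 2–825, His6/FLAG-tagged, insect-cell expressed) at 80 pM hydrolyses 1 μM cAMP including 20 nM 3H-cAMP, ~20% conversion. Buffer is 50 mM Tris pH 7.5, 1.3 mM MgCl2, 0.01% Brij. Incubated 30 min at 25 °C with inhibitor range, stopped with yttrium silicate SPA beads, read after 8 h settling.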

Human PDE4B1 = target: T2, Human PDE4B1 (Homo sapiens, UniProt Q07343, S133E/S654A/S659A/S661A); assay: PDE4B1 Scintillation Proximity Assay (SPA), inhibition of enzyme activity; settings: geometric mean of 2-7 determinations unless otherwise indicated (b: ≥8 determinations; c: single determination); 1 μM cAMP, 30 min at 25° C.; read-out: Human PDE4B FL; IC50
T2 construct: His6 (N); thrombin cleavage site (N); made in house; host or cells: insect cells (baculovirus, pFastBac)
In short: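 His-tagged human PDE4B1 expressed in insect cells and purified by Ni-NTA and Source 15Q was assayed in 50 mM Tris pH 7.5, 1.3 mM MgCl2, 0.01% Brij. The substrate was 1 μM cAMP with ³H-cAMP tracer, at about 20% conversion, for 30 min at 25 °C. Yttrium silicate SPA beads stopped the reaction; counts were read after 8 h settling.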

Human PDE4C1 = target: T3, Human PDE4C1 (Homo sapiens, UniProt Q08493); assay: PDE4C1 Scintillation Proximity Assay (SPA), inhibition of enzyme activity; settings: geometric mean of 2-7 determinations unless otherwise indicated (b: ≥8 determinations; c: single determination), 1 μM cAMP, 30 min at 25° C., read-out: Human PDE4C FL
T3 construct: His6 (N); FLAG (C); made in house; host or cells: insect cells (baculovirus, pFastBac)
In short: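 Human recombinant FLAG/His-purified PDE4C1 from insect cells at 40 pM, with 1 μM cAMP (3H-cAMP tracer) in Tris pH 7.5, 1.3 mM MgCl2, 0.01% Brij, ~20% substrate turnover. Incubation 30 min at 25° C with a range of inhibitor concentrations. Stopped with yttrium silicate SPA beads and read by scintillation after 8 h settling.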

human PDE4D3 = target: T4, human PDE4D3 (Homo sapiens, UniProt Q08499); assay: PDE4D3 Scintillation Proximity Assay (SPA), inhibition of enzyme activity; settings: geometric mean of 2-7 determinations unless otherwise indicated (b: ≥8 determinations; c: single determination); 1 μM cAMP, 30 min at 25° C.; read-out: Human PDE4D FL; IC50
T4 construct: His6 (C); made in house; host or cells: insect cells (baculovirus, pFastBac)
In short: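 Recombinant enzyme from insect cells, Ni-NTA and Q Sepharose purified, used at 10 pM in 50 mM Tris pH 7.5, 1.3 mM MgCl2, 0.01% Brij. Substrate 1 μM cAMP with 3H-cAMP tracer, ~20% conversion, inhibitor range, 30 min at 25°C. Stopped with yttrium silicate SPA beads and scintillation read.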

T3 sequence (Q08493 2-712): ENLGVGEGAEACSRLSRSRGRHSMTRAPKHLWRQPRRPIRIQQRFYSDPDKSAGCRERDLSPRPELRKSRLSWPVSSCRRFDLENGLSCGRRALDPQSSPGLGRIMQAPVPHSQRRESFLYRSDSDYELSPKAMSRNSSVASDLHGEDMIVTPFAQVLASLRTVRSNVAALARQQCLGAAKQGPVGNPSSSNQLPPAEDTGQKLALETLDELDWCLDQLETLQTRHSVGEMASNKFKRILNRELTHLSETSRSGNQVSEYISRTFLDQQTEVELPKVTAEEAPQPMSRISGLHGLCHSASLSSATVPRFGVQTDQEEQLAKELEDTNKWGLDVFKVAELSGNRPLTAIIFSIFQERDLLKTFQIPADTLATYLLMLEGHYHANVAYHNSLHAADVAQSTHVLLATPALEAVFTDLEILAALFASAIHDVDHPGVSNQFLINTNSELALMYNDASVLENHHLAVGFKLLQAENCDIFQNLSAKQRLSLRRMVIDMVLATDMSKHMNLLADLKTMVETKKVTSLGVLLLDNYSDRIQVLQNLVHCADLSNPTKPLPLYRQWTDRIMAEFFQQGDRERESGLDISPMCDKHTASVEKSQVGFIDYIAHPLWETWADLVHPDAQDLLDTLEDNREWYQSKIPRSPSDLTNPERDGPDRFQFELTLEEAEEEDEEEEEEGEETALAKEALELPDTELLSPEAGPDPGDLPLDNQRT
T4 sequence (Q08499 186-808): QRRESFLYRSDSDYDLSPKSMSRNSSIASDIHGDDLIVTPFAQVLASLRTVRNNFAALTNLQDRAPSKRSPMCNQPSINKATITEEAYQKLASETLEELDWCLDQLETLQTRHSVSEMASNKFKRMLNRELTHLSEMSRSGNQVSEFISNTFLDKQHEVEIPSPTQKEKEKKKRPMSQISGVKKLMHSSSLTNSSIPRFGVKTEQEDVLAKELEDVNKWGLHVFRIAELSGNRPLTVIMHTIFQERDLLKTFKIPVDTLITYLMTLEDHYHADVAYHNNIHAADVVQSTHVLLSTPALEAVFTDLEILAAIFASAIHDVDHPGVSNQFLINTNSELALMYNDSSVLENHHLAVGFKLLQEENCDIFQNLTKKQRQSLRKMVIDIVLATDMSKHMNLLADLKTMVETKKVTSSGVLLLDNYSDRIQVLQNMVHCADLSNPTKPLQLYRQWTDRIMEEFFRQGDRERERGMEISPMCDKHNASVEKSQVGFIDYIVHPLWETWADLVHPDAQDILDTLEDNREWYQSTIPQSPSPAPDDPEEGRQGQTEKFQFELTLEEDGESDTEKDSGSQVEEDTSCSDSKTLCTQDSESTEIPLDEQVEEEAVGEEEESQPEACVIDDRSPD
T2 sequence (Q07343 122-736 S133E/S654A/S659A/S661A): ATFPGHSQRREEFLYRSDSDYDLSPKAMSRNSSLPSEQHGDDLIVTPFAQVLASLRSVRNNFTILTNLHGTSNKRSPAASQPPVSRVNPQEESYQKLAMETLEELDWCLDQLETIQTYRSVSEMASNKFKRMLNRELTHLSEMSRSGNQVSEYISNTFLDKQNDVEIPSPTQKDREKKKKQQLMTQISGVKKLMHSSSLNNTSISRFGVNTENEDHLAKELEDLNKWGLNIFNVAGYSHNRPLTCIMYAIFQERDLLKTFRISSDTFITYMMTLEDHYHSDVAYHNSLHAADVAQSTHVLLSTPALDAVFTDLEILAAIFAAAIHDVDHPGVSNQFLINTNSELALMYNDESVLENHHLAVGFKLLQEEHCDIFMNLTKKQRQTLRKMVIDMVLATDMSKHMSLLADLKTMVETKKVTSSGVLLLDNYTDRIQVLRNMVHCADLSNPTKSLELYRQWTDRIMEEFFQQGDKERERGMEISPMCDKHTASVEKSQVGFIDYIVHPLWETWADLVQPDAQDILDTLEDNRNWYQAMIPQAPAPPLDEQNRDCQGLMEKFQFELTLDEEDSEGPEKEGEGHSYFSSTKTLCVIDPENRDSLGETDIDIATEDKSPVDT
T1 sequence (P27815 2-825 isoform P27815-6): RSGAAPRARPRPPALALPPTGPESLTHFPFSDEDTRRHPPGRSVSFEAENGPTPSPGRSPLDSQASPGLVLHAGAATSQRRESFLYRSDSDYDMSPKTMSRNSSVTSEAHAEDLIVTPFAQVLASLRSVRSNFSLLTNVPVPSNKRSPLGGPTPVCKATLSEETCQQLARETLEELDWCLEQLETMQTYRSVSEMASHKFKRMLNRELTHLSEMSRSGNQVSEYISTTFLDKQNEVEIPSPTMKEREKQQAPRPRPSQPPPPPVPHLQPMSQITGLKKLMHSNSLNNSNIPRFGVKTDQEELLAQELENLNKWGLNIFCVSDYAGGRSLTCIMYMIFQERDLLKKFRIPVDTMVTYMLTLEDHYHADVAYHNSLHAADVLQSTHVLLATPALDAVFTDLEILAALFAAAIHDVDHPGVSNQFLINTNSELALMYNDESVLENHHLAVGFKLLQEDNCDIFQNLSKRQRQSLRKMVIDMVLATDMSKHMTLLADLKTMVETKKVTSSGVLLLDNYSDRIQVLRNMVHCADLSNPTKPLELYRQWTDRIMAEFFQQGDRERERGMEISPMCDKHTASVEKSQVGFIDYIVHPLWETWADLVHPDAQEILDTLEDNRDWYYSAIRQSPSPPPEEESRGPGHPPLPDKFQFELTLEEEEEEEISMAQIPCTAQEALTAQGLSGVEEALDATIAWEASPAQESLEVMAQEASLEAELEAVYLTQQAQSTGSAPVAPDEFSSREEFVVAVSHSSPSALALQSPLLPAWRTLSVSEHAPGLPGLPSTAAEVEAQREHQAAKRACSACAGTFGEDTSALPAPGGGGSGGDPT

| SMILES | IC50 (Human PDE4A3) [µM] | IC50 (Human PDE4B1) [µM] | IC50 (Human PDE4C1) [µM] | IC50 (human PDE4D3) [µM] |
| --- | --- | --- | --- | --- |
| Cc1cc(Cl)c(F)cc1-c1c(C(=O)NC(C)C)nn2cccnc12 [Example 54, 3-(4-chloro-5-fluoro-2-methylphenyl)-N-(propan-2-yl)pyrazolo[1,5-a]pyrimidine-2-carboxamide] | 0.0129 | 0.0245 | 0.059 | 0.469 |
| Cc1ccc(-c2c(C(=O)NC3CC3)nn3cc(F)cnc23)cc1F [Example 63, N-cyclopropyl-6-fluoro-3-(3-fluoro-4-methylphenyl)pyrazolo[1,5-a]pyrimidine-2-carboxamide] | 0.00402 | 0.0132 | 0.0095 | 0.459 |
| Cc1cc(Cl)c(F)cc1-c1c(C(=O)N2CCC2)nn2cccnc12 [Example 61, azetidin-1-yl[3-(4-chloro-5-fluoro-2-methylphenyl)pyrazolo[1,5-a]pyrimidin-2-yl]methanone] | 0.002 | 0.008 | 0.02 | 0.098 |
| Cc1cc(Cl)c(F)cc1-c1c(C(=O)NC2CC2)nn2cccnc12 [Example 25, 3-(4-chloro-5-fluoro-2-methylphenyl)-N-cyclopropylpyrazolo[1,5-a]pyrimidine-2-carboxamide] | 0.00535 | 0.00961 | 0.0174 | 0.283 |
| CCNC(=O)c1nn2cccnc2c1-c1ccc(Cl)cc1 [Example 52, 3-(4-chlorophenyl)-N-ethylpyrazolo[1,5-a]pyrimidine-2-carboxamide] | 0.142 | 0.234 | 0.115 | 5.93 |
| O=C(NC1CC1)c1nn2cc(F)cnc2c1-c1ccnc(OC(F)F)c1 [Example 56, N-cyclopropyl-3-[2-(difluoromethoxy)pyridin-4-yl]-6-fluoropyrazolo[1,5-a]pyrimidine-2-carboxamide] | 0.00392 | 0.0223 | 0.0194 | 0.0784 |
| O=C(NC1CC1(F)F)c1nn2cccnc2c1-c1ccc(Cl)c(F)c1 (stereo not drawn) [Example 39, 3-(4-chloro-3-fluorophenyl)-N-(2,2-difluorocyclopropyl)pyrazolo[1,5-a]pyrimidine-2-carboxamide] | 0.0232 | 0.0129 | 0.0663 | 0.3 |
| CC(C)NC(=O)c1nn2cccnc2c1-c1ccc(Cl)cc1 [Example 26, 3-(4-chlorophenyl)-N-(propan-2-yl)pyrazolo[1,5-a]pyrimidine-2-carboxamide] | 0.411 | 0.488 | 0.626 | 4.91 |
| CCCNC(=O)c1nn2cccnc2c1-c1ccc(Cl)cc1 [Example 2, 3-(4-Chlorophenyl)-N-propylpyrazolo[1,5-a]pyrimidine-2-carboxamide] | 0.0614 | 0.0346 | 0.0606 | 4.15 |
| CCCC(=O)Nc1nn2cccnc2c1-c1ccc(Cl)c(F)c1 [Example 4, N-[3-(4-Chloro-3-fluorophenyl)pyrazolo[1,5-a]pyrimidin-2-yl]butanamide] | 0.553 | 0.894 | 1.54 | > 30 |
| O=C(Nc1ncccn1)c1nn2cccnc2c1-c1ccc(Cl)cc1 [Example 8, 3-(4-Chlorophenyl)-N-(pyrimidin-2-yl)pyrazolo[1,5-a]pyrimidine-2-carboxamide] | 0.19 | 1.09 | 0.965 | > 25.2 |
| Cc1cc(C#N)c(F)cc1-c1c(C(=O)NC2CC2)nn2cc(F)cnc12 [Example 67, 3-(4-cyano-5-fluoro-2-methylphenyl)-N-cyclopropyl-6-fluoropyrazolo[1,5-a]pyrimidine-2-carboxamide] | 0.00346 | 0.0164 | 0.0268 | 0.111 |
| O=C(NC1CC1)c1nn2cc(F)cnc2c1-c1ccc(Cl)c(F)c1 [Example 59, 3-(4-chloro-3-fluorophenyl)-N-cyclopropyl-6-fluoropyrazolo[1,5-a]pyrimidine-2-carboxamide] | 0.00119 | 0.00493 | 0.00772 | 0.159 |
| CCNC(=O)c1nn2cccnc2c1-c1cc(F)c(C#N)cc1C [Example 16, 3-(4-cyano-5-fluoro-2-methylphenyl)-N-ethylpyrazolo[1,5-a]pyrimidine-2-carboxamide] | 0.0159 | 0.0543 | 0.0798 | 2.51 |
| O=C(NC1CC1)c1nn2cccnc2c1-c1cccc(Cl)c1 [Example 31, 3-(3-chlorophenyl)-N-cyclopropylpyrazolo[1,5-a]pyrimidine-2-carboxamide, hydrochloride salt] | 0.0362 | 0.051 | 0.106 | 2.12 |
| O=C(NC1CC1)c1nn2cccnc2c1-c1cc(Cl)ccc1F [Example 13, 3-(5-chloro-2-fluorophenyl)-N-cyclopropylpyrazolo[1,5-a]pyrimidine-2-carboxamide] | 0.0272 | 0.0579 | 0.0579 | 2.46 |

Continued by falling IC50 (Human PDE4A3), values first:

| IC50 (Human PDE4A3) [µM] | IC50 (Human PDE4B1) [µM] | IC50 (Human PDE4C1) [µM] | IC50 (human PDE4D3) [µM] | SMILES |
| --- | --- | --- | --- | --- |
| 0.212 | 0.474 | 1.19 | > 18.4 | COc1cc(-c2c(C(=O)NC3CC3)nn3cccnc23)ccn1 [Example 42, N-cyclopropyl-3-(2-methoxypyridin-4-yl)pyrazolo[1,5-a]pyrimidine-2-carboxamide] |
| 0.0926 | 0.0033 | 0.17 | 0.408 | O=C(NC1CC1)c1nn2cccnc2c1-c1cc(F)c(Cl)c(F)c1 [Example 33, 3-(4-chloro-3,5-difluorophenyl)-N-cyclopropylpyrazolo[1,5-a]pyrimidine-2-carboxamide, hydrochloride salt] |
| 0.0471 | 0.226 | 0.65 | > 15.5 | O=C(NC1CC1)c1nn2cccnc2c1-c1ccc2ocnc2c1 [Example 60, 3-(1,3-benzoxazol-5-yl)-N-cyclopropylpyrazolo[1,5-a]pyrimidine-2-carboxamide] |
| 0.022 | 0.00606 | 0.048 | 0.993 | O=C(c1nn2cccnc2c1-c1ccc(Cl)c(F)c1)N1CCC1 [Example 12, azetidin-1-yl[3-(4-chloro-3-fluorophenyl)pyrazolo[1,5-a]pyrimidin-2-yl]methanone] |
| 0.0179 | 0.0527 | 0.0842 | > 9.3 | O=C(c1nn2cccnc2c1-c1ccc(Cl)cc1)N1CCC1 [Example 1, Azetidin-1-yl[3-(4-chlorophenyl)pyrazolo[1,5-a]pyrimidin-2-yl]methanone] |
| 0.0177 | 0.0483 | 0.0708 | > 4.87 | CCNC(=O)c1nn2cccnc2c1-c1ccnc(OC(F)F)c1 [Example 50, 3-[2-(difluoromethoxy)pyridin-4-yl]-N-ethylpyrazolo[1,5-a]pyrimidine-2-carboxamide] |
| 0.002 | 0.007 | 0.009 | 0.079 | O=C(c1nn2cc(F)cnc2c1-c1ccc(Cl)c(F)c1)N1CCC1 [Example 66, azetidin-1-yl[3-(4-chloro-3-fluorophenyl)-6-fluoropyrazolo[1,5-a]pyrimidin-2-yl]methanone] |
| 0.000461 | 0.00271 | 0.00283 | 0.0921 | O=C(NC1CC1)c1nn2cc(F)cnc2c1-c1cc(F)c(Cl)c(F)c1 [Example 57, 3-(4-chloro-3,5-difluorophenyl)-N-cyclopropyl-6-fluoropyrazolo[1,5-a]pyrimidine-2-carboxamide] |
